Assay results taken from patent US20190077774A1, “PEROXISOME PROLIFERATOR-ACTIVATED RECEPTOR AGONISTS” (City of Hope, priority 2017, published 2019).

How the values were obtained:
[1] = target: T1, PPARα (Homo sapiens, UniProt Q07869); test: PPRE-luc reporter assay in CV-1 cells co-transfected with PPARα and RXRα expression plasmids; assay type: cell-based; details: luciferase reporter
T1 construct: expressed in transfected cells; host or cells: CV-1 (monkey kidney) cells
T1 sequence (Q07869 1-468): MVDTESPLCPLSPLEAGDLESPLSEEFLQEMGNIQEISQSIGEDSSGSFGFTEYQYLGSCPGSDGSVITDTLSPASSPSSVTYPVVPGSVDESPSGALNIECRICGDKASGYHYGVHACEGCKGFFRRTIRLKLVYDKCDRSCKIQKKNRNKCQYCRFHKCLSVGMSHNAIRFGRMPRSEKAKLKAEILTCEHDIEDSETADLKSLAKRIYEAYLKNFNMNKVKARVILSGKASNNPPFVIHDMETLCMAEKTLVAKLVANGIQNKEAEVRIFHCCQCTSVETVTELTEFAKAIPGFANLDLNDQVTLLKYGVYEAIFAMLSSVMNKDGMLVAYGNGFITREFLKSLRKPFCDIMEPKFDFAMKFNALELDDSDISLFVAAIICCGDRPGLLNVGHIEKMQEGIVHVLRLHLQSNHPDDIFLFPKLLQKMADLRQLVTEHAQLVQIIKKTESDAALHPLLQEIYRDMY
T1 sequence (P19793 1-462 partner): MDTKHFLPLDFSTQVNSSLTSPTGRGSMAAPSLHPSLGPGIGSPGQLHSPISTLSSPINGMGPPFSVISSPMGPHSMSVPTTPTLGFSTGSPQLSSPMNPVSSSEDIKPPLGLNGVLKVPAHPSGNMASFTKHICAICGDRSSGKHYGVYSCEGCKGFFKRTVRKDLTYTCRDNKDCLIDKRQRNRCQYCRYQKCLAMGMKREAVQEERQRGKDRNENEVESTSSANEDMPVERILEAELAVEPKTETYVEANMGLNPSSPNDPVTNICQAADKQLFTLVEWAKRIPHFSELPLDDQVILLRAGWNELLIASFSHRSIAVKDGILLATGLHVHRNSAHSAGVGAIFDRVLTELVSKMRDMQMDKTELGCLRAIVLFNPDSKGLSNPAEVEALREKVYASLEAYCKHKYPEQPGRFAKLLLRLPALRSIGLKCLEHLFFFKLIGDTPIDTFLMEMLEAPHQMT
Experimental: In brief, monkey kidney CV-1 cells were co-transfected with appropriate reporter constructs and expression vectors. The fold activation of the reporter construct by ligand was determined at several concentrations of selected compounds (FIG. 4).^20 To examine the effect of DY-compound on PPARα-mediated PPRE transcriptional activation, a PPRE-luc reporter assay was conducted using a PPRE-driven luciferase reporter-gene (PPRE-luc) plasmid and PPARα and RXRα gene expression plasmids in CV-1 cells.

[2] = Body weight and food intake of treated mice; assay type: in vivo
Experimental: Next, we would like to investigate the therapeutic potential of DY121 to see if it could be candidate for treating NAFLD/NASH. Note that the pathogenesis of NASH has not yet been fully elucidated so far; however, the ‘two-hit’ theory is widely accepted. The first hit is the accumulation of fatty acids in the liver to cause steatosis. […] The newly produced PPARα agonist DY121 and its analogs, as well as WY100=WY14643 and GW3 (GW7647), were evaluated in C57Bl/6J female mice for their ability to alter serum triglyceride, liver gene expression, and glucose. Fibric acid derivatives (100 mg/kg/day) was used as a control, WY100 (WY14, 643, 100 mg/kg/day), GW3 (GW7647-positive control, 3 mg/kg/day), DY121 (˜3 mg/kg/day), respectively. DY series compounds and controls administered once to C57Bl/6J female mice at 8 weeks of age. Mice were treated at 3 mg/kg for all compounds except WY14643 (100 mg/kg).

COc1ccc(Cn2c(CCCc3ccc(OC(C)(C)C(=O)O)cc3)nn(Cc3ccc(C)cc3)c2=O)cc1 [10a, 2-(4-{3-[4-(4-Methoxy-benzyl)-1-(4-methyl-benzyl)-5-oxo-4,5-dihydro-1H[1,2,4]triazol-3-yl]-propyl}-phenoxy)-2-methyl-propionic acid]
PPARα activation / PPRE-luc activity [1]: highest PPARα activation | body weight ([2]; 24 h vs 72 h (FIG. 8)): unaffected | body weights and food intake ([2]; vs control group): no significant differences
